Where two headings read alike, the source gives them in different places.
Columns and labels:
pERK HCT-116 (G13D) = pERK HCT-116 (G13D) ICW (4 hour); assay type: cell-based
uMEK/BRAF = uMEK/BRAF (Homo sapiens (Human), UniProt Q02750); assay: MEK-RAF Binding Assay (uMEK/BRAF HTRF)
[1] = Cassette pharmacokinetics studies in mice; assay type: in vivo; conditions: male, Balb/c, plasma; Mouse, PO, 5 mg/kg
Experimental: Pharmacokinetics studies were conducted using cassette dosing protocols, with test compounds administered per mouse. Treatment groups were 3 mice (˜6-8 weeks old, ˜20-30 g Balb/c male mice) per route of administration. Compounds were formulated in 5% DMSO and 95% PEG400 with final concentrations of 0.5 mg/mL for IV and PO dosing. Compounds were dosed at 2 mg/kg for IV dosing and 5 mg/kg for PO dosing. Blood samples were withdrawn at 0.083, 0.25, 0.5, 1.0, 2.0, 4.0, 6.0, 8.0, and 24 hours following IV dosing, and 0.25, 0.5, 1.0, 2.0, 4.0, 6.0, 8.0, and 24 hours following PO dosing. Blood samples were centrifuged at 4,000 g for 5 minutes at 4° C. to obtain plasma samples. Plasma samples were diluted with acetonitrile containing internal standard, vortexed for 30 seconds, then centrifuged at 4,000 rpm for 15 minutes at 4° C. The supernatant was diluted with water, and compound concentration was determined by HPLC/MS/MS compared to calibration standards of 0.5-1,000 ng/mL.
Where route is listed as “IV*”, the compound was dosed IV at 1 mg/kg.

MEK1-CRAF complex = MEK1-CRAF complex (Homo sapiens (Human), UniProt Q02750); assay: Stabilization of MEK1-CRAF complex assay (AlphaLISA); assay type: binding
Experimental: MEK1 was diluted to 4 nM, and nickel chelate donor beads and glutathione acceptor beads were diluted to 80 μg/mL. CRAF was diluted to a top concentration of 160 nM, which was subsequently diluted to 80, 40, 20, 10, 5, 2.5, 1.25, and 0.625 nM through 1:2 serial dilution.
Exemplary MEK inhibitor compounds (0, 0.01, 0.1, or 1 μM) were added to a 384-AlphaPlate (PerkinElmer, 6008350) by a digital liquid dispenser (Tecan D300e) based on a total volume of 20 μL reaction mixture.
5 μL 4×MEK1 stock solution was added to wells A1-P20 by multichannel pipettes. The plate was sealed with clear olefin sealing tape (Thermo Scientific, 232701), centrifuged at 1000 rpm for 1 minute, and incubated at room temperature for 30 minutes.
5 μL 4×CRAF stock solution at different concentrations or 5 μL or 10 μL AlphaLISA buffer was added by multichannel pipettes. The plate was sealed, centrifuged at 1000 rpm for 1 minute, and incubated at room temperature for 60 minutes.
5 μL 4×glutathione acceptor beads were first added to all wells by multichannel pipettes. The ambient light was subsequently adjusted to <100 lux (light meter) before adding 5 μL 4×nickel chelate donor beads to the same wells. From this step on, the plate was covered with a black plate cover, centrifuged at 1000 rpm for 1 minute, and incubated at room temperature for 60 minutes.
Data were collected on a PHERAStar FSX (BMG LABTECH) using the AlphaLISA module (excitation: 680 nm, emission: 615 nm), with a gain of 3600. The excitation time was 0.30 seconds, and data collection started after a 0.04-second delay for a total integration time of 0.60 seconds.
The individual AlphaLISA counts of wells with exemplary MEK inhibitor compound were divided by the average AlphaLISA counts of wells without compound to obtain AlphaLISA signal/background ratio (S/B). The dissociation constant (KD) of MEK1-CRAF was calculated using nonlinear regression curve fit in GraphPad PRISM® 9.0 software.

[2] = system: Phosphorylation of ERK1/2 in AsPC1 cells; assay: 4 hour pERK1/2 HTRF Assay; assay type: cell-based; conditions: Homo sapiens, ASPC1, read-out: pERK AsPC-1 HTRF (4 hour): Average IC50 (nM); AsPC-1, 4 hour
Experimental: AsPC1 cells were seeded at 20,000 cells/well overnight in 96-well plates, then treated with a 12-point dose response of compounds (Starting dose of 3000 nM and 3-fold dilution) for 4 hours. AsPC1 cells are a K-Ras mutant cell line. Phosphorylation of ERK1/2 on residues Thr202 and Tyr204 were detected using a Homogenous Time-Resolved Fluorescence (HTRF) assay (Cisbio Cat #64ERKPEG). Briefly, ERK phosphorylation was detected using a sandwich assay format using two phospho-ERK specific antibodies, one labelled with EU^3+-Cryptate (donor) and the second with d2 (acceptor). The Fluorescence Resonance Energy Transfer (FRET) towards the d2 acceptor was detected at a wavelength of 665 nm. ERK1/2 phosphorylation levels were normalized to total ERK1/2 protein levels in each well. IC50 values were determined by fitting a variable slope, four parameters curve to the compound concentration to normalized Phospho-ERK1/2 relationship.

[3] = Homo sapiens, read-out: pERK HCT-116 (G13D) ICW (4 hour): Average IC50 (nM)
[4] = read-out: pERK HCT-116 (G13D) ICW (4 hour): Average IC50

Compound | IC50 (pERK HCT-116 (G13D); [3]) [nM] | IC50 (uMEK/BRAF) [nM] | other results
Cc1c(Oc2cccc(N=S(C)(N)=O)c2)c(C(=O)NC2CC2)c(Nc2ccc(I)cc2F)n(C)c1=O (stereo in doubt) [Compound I-8, (R)-4-(3-((amino(methyl)oxo-lambda6-sulfaneylidene)amino)phenoxy)-N-cyclopropyl-2-((2-fluoro-4-iodophenyl)amino)-1,5-dimethyl-6-oxo-1,6-dihydropyridine-3-carboxamide] | < 100 | < 100 | 
CNS(=O)(=O)Nc1cccc(Oc2c(C(=O)NC3CC3)c(Nc3ccc(I)cc3F)n(C)c(=O)c2C)c1C [Compound I-3] | < 100 | < 100 | 
CNS(=O)(=O)Nc1cccc(Oc2c(C(=O)NC3CC3)c(Nc3ccc(I)cc3F)n(C)c(=O)c2C)c1F [Compound I-4, N-cyclopropyl-4-{2-fluoro-3-[(methylsulfamoyl)amino]phenoxy}-2-[(2-fluoro-4-iodophenyl)amino]-1,5-dimethyl-6-oxopyridine-3-carboxamide] | < 100 | < 100 | 
CNS(=O)(=O)Nc1cccc(Oc2c(C(=O)NC3CC3)c(Nc3ccc(I)cc3F)n(C)c(=O)c2C)c1 [Compound I-5, N-cyclopropyl-2-((2-fluoro-4-iodophenyl)amino)-1,5-dimethyl-4-(3-((N-methylsulfamoyl)amino)phenoxy)-6-oxo-1,6-dihydropyridine-3-carboxamide] | < 100 | < 100 | 
Cc1c(Oc2cccc(NS(N)(=O)=O)c2)c(C(=O)NC2CC2)c(Nc2ccc(I)cc2F)n(C)c1=O [Compound I-6] | < 100 | < 100 | 
CNS(=O)(=O)Nc1cc(F)cc(Oc2c(C(=O)NC3CC3)c(Nc3ccc(I)cc3F)n(C)c(=O)c2C)c1 [Compound I-10] | < 100 | < 100 | 
Cc1c(Oc2cccc(CS(=O)(=O)N(C)C)c2)c(C(=O)NC2CC2)c(Nc2ccc(I)cc2F)n(C)c1=O [Compound I-11] | 100 to 1000 | < 100 | 
CNS(=O)(=O)n1ccc2c(Oc3c(C(=O)NC4CC4)c(Nc4ccc(I)cc4F)n(C)c(=O)c3C)cccc21 [Compound I-12] | 1000 to 10000 | < 100 | 
Cc1c(Oc2ccc3c(c2)NS(=O)(=O)NC3)c(C(=O)NC2CC2)c(Nc2ccc(I)cc2F)n(C)c1=O [Compound I-13] | 100 to 1000 | 100 to 1000 | 
CNS(=O)(=O)Nc1cc(Oc2c(C(=O)NC3CC3)c(Nc3ccc(I)cc3F)n(C)c(=O)c2C)ccc1F [Compound I-15] | 100 to 1000 | 100 to 1000 | 
Cc1c(Oc2cccc(CS(N)(=O)=O)c2)c(C(=O)NC2CC2)c(Nc2ccc(I)cc2F)n(C)c1=O [Compound I-16] | 100 to 1000 | 100 to 1000 | 
CNS(=O)(=O)Nc1ccc(F)c(Oc2c(C(=O)NC3CC3)c(Nc3ccc(I)cc3F)n(C)c(=O)c2C)c1 [Compound I-17] | 100 to 1000 | 100 to 1000 | 
CNS(=O)(=O)Nc1cc(Oc2c(C(=O)NC3CC3)c(Nc3ccc(I)cc3F)n(C)c(=O)c2C)ccc1OC [Compound I-18] | 1000 to 10000 | 100 to 1000 | 
CNS(=O)(=O)Nc1cc(Oc2c(C(=O)NC3CC3)c(Nc3ccc(I)cc3F)n(C)c(=O)c2C)ccc1C [Compound I-22] | 1000 to 10000 | 100 to 1000 | 
CNS(=O)(=O)Cc1cccc(Oc2c(C(=O)NC3CC3)c(Nc3ccc(I)cc3F)n(C)c(=O)c2C)c1 [Compound I-23, N-cyclopropyl-2-((2-fluoro-4-iodophenyl)amino)-1,5-dimethyl-4-(3-((N-methylsulfamoyl)methyl)phenoxy)-6-oxo-1,6-dihydropyridine-3-carboxamide] |  | 100 to 1000 | IC50 (pERK HCT-116 (G13D); [4]): 1000 to 10000 nM
CNS(=O)(=O)Nc1cccc(Oc2c(C(=O)N(C)C3CC3)c(Nc3ccc(I)cc3F)n(C)c(=O)c2C)c1C [Compound I-24] | 100 to 1000 | 1000 to 10000 | 
CNS(=O)(=O)Nc1cc(OC)cc(Oc2c(C(=O)NC3CC3)c(Nc3ccc(I)cc3F)n(C)c(=O)c2C)c1 [Compound I-25] | 1000 to 10000 | 1000 to 10000 | 
CNS(=O)(=O)Nc1ccc(OC)c(Oc2c(C(=O)NC3CC3)c(Nc3ccc(I)cc3F)n(C)c(=O)c2C)c1 [Compound I-26] | 1000 to 10000 | 1000 to 10000 | 
CNS(=O)(=O)Nc1cccc(Oc2c(C(=O)NC3CC3)c(Nc3ccc(I)cc3F)n(C)c(=O)c2C)c1OC(F)(F)F [Compound I-40] |  |  | AUC(0-inf) [1]: 2940 ng·h/mL; AUC(0-t) [1]: 2750 ng·h/mL; Cmax [1]: 783 ng/mL; Tmax [1]: 0.8 h; half-life [1]: 1.82 h; KD Ratio (mean), compound to DMSO (MEK1-CRAF complex; compound 0.01 μM): 0.87; KD Ratio (mean), compound to DMSO (MEK1-CRAF complex; compound 0.1 μM): 0.62; KD Ratio (mean), compound to DMSO (MEK1-CRAF complex; compound 1 μM): 0.47; IC50 [2]: < 100 nM
CNS(=O)(=O)Nc1cccc(Oc2c(C(=O)NC(C)C)c(Nc3ccc(I)cc3F)n(C)c(=O)c2C)c1Cl [Compound I-41] |  |  | AUC(0-inf) [1]: 3470 ng·h/mL; AUC(0-t) [1]: 3340 ng·h/mL; Cmax [1]: 1260 ng/mL; Tmax [1]: 0.5 h; half-life [1]: 1.62 h; KD Ratio (mean), compound to DMSO (MEK1-CRAF complex; compound 0.01 μM): 0.79; KD Ratio (mean), compound to DMSO (MEK1-CRAF complex; compound 0.1 μM): 0.57; KD Ratio (mean), compound to DMSO (MEK1-CRAF complex; compound 1 μM): 0.48
CNS(=O)(=O)Nc1cccc(Oc2c(C(=O)NCC(F)(F)F)c(Nc3ccc(I)cc3F)n(C)c(=O)c2C)c1Cl [Compound I-45] |  | < 100 | KD Ratio (mean), compound to DMSO (MEK1-CRAF complex; compound 0.01 μM): 0.62; KD Ratio (mean), compound to DMSO (MEK1-CRAF complex; compound 0.1 μM): 0.42; KD Ratio (mean), compound to DMSO (MEK1-CRAF complex; compound 1 μM): 0.38; IC50 [2]: < 100 nM
CCNC(=O)c1c(Oc2cccc(NS(=O)(=O)NC)c2Cl)c(C)c(=O)n(C)c1Nc1ccc(I)cc1F [Compound I-54] |  |  | AUC(0-inf) [1]: 4540 ng·h/mL; AUC(0-t) [1]: 4390 ng·h/mL; Cmax [1]: 1670 ng/mL; Tmax [1]: 0.5 h; half-life [1]: 1.6 h; KD Ratio (mean), compound to DMSO (MEK1-CRAF complex; compound 0.01 μM): 0.58; KD Ratio (mean), compound to DMSO (MEK1-CRAF complex; compound 0.1 μM): 0.36; KD Ratio (mean), compound to DMSO (MEK1-CRAF complex; compound 1 μM): 0.35
Cc1c(Oc2ccc3c(c2)CNS(=O)(=O)N3)c(C(=O)NC2CC2)c(Nc2ccc(I)cc2F)n(C)c1=O [Compound I-59] | 100 to 1000 | 100 to 1000 | 
Cc1c(Oc2ccc3c(c2)CN(C)S(=O)(=O)N3)c(C(=O)NC2CC2)c(Nc2ccc(I)cc2F)n(C)c1=O [Compound I-60] | < 100 | 100 to 1000 | 
Cc1c(Oc2ccc3c(c2)CNS(=O)(=O)N3C)c(C(=O)NC2CC2)c(Nc2ccc(I)cc2F)n(C)c1=O [Compound I-61] | 100 to 1000 | 100 to 1000 | 
Cc1c(Nc2ccc3c(c2)CNS(=O)(=O)N3)c(C(=O)NC2CC2)c(Nc2ccc(I)cc2F)n(C)c1=O [Compound I-62] | < 100 | < 100 | 
N-cyclopropyl-2-[(2-fluoro-4-iodophenyl)amino]-4-(3-methanesulfonoimidamidophenoxy)-1,5-dimethyl-6-oxopyridine-3-carboxamide [Compound I-20] |  | 100 to 1000 | IC50 (pERK HCT-116 (G13D); [4]): 100 to 1000 nM

Source: US20230382863A1, “MEK INHIBITORS AND USES THEREOF” (Ikena Oncology, Inc., priority 2022, published 2023)
